Data as given in patent publication US10450306B2, “Isoxazole analogs as FXR agonists and methods of use thereof” (Enanta Pharmaceuticals, Inc., priority 2016, dated 2019).

Target: T1, human FXR (NR1H4) (Homo sapiens, UniProt Q96RI1)
T1 construct: host or cells: CHO (Chinese hamster ovary) reporter cells
T1 sequence (Q96RI1 1-486): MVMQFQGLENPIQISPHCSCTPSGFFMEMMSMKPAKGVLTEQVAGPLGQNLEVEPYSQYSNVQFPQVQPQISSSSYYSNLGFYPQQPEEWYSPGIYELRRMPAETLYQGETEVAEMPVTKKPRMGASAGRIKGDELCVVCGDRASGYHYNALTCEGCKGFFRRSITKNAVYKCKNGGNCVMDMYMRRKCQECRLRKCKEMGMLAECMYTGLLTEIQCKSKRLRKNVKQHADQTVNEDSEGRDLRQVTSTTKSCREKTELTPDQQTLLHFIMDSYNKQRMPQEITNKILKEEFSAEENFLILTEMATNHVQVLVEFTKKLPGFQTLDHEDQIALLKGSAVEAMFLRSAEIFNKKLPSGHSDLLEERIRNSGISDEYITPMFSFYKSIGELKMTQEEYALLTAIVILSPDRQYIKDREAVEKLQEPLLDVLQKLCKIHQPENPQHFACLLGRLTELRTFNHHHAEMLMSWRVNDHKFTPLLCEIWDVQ
Test: Human FXR (NR1H4) Assay: Gal4 promoter driven luciferase reporter transactivation in CHO cells (Indigo Bioscience kit IB00601); as to Efficacy (%): efficacy normalized to CDCA set as 100%
Format: cell-based
Details: for Emax: CHO, read-out: Efficacy (%); for EC50: Human FXR (NR1H4) reporter assay, potency ranges
Method in brief: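 Luminescence read-out after 22 h exposure quantified FXR transactivation; compounds were tested at several doses, 0.2% DMSO, in CHO cells engineered with human NR1H4 and a luciferase gene linked to an FXR-responsive promoter.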

SMILES	Emax [%]	EC50 [nM]
O=C(NS(=O)(=O)C1CC1)c1cc(F)c2nc(N3CCC(NCc4c(-c5c(Cl)cccc5Cl)noc4C4CC4)CC3)sc2c1 [Example 400-9]	37.5	100 to 1000
CC1(S(=O)(=O)NC(=O)c2cc(F)c3nc(N4CCC(NCc5c(-c6c(Cl)cccc6Cl)noc5C5CC5)CC4)sc3c2)CC1 [Example 400-10]	68	100 to 1000
Cc1cc2nc(N3C4CCC3CC(NCc3c(-c5c(Cl)cccc5Cl)noc3C3CC3)C4)sc2cc1C(=O)NS(=O)(=O)C1(C)CC1 (stereo not shown) [Example 400-11]	79.3	< 1
Cc1cc2nc(N3C4CCC3CC(NCc3c(-c5c(Cl)cccc5Cl)noc3C3CC3)C4)sc2cc1C(=O)NS(=O)(=O)N1CCCCC1 (stereo not shown) [Example 400-12]	115	< 1
Cc1c(C(=O)NS(=O)(=O)C2(C)CC2)ccc2nc(N3C4CCC3CC(NCc3c(-c5c(Cl)cccc5Cl)noc3C3CC3)C4)sc12 (stereo not shown) [Example 400-13]	83.3	1 to 100
Cc1c(C(=O)NS(=O)(=O)N2CCCCC2)ccc2nc(N3C4CCC3CC(NCc3c(-c5c(Cl)cccc5Cl)noc3C3CC3)C4)sc12 (stereo not shown) [Example 400-14]	119	< 1
CCOc1cc(C(=O)NS(=O)(=O)C2(C)CC2)cc2sc(N3C4CCC3CC(NCc3c(-c5c(Cl)cccc5Cl)noc3C3CC3)C4)nc12 (stereo not shown) [Example 400-15]	104	< 1
CCOc1cc(C(=O)NS(=O)(=O)N2CCCCC2)cc2sc(N3C4CCC3CC(NCc3c(-c5c(Cl)cccc5Cl)noc3C3CC3)C4)nc12 (stereo not shown) [Example 400-16]	87.3	< 1
CC(C)Oc1cc(C(=O)NS(=O)(=O)C2(C)CC2)cc2sc(N3C4CCC3CC(NCc3c(-c5c(Cl)cccc5Cl)noc3C3CC3)C4)nc12 (stereo not shown) [Example 400-18]	98	< 1
CC(C)Oc1cc(C(=O)NS(=O)(=O)N2CCCCC2)cc2sc(N3C4CCC3CC(NCc3c(-c5c(Cl)cccc5Cl)noc3C3CC3)C4)nc12 (stereo not shown) [Example 400-20]	43.6	1 to 100
CC1(S(=O)(=O)NC(=O)c2cc3sc(N4C5CCC4CC(NCc4c(-c6c(Cl)cccc6Cl)noc4C4CC4)C5)nc3cc2F)CC1 (stereo not shown) [Example 400-22]	83.2	< 1
O=C(NS(=O)(=O)N1CCCCC1)c1cc2sc(N3C4CCC3CC(NCc3c(-c5c(Cl)cccc5Cl)noc3C3CC3)C4)nc2cc1F (stereo not shown) [Example 400-24]	88.2	< 1
O=C(NS(=O)(=O)C1CC1)c1cnc2nc(N3C4CCC3CC(NCc3c(-c5c(Cl)cccc5Cl)noc3C3CC3)C4)sc2n1 (stereo not shown) [Example 400-25]	72	1 to 100
CC1(S(=O)(=O)NC(=O)c2cnc3nc(N4C5CCC4CC(NCc4c(-c6c(Cl)cccc6Cl)noc4C4CC4)C5)sc3n2)CC1 (stereo not shown) [Example 400-26]	97.2	< 1
Cc1cc(C(=O)NS(=O)(=O)C2(C)CC2)cc2sc(N3C4CCC3CC(NCc3c(-c5c(Cl)cccc5Cl)noc3C3CC3)C4)nc12 (stereo not shown) [Example 400-29]	118	< 1
CC1(S(=O)(=O)NC(=O)c2cc3sc(N4C5CCC4CC(NCc4c(-c6c(Cl)cccc6Cl)noc4C4CC4)C5)nc3cc2-c2ccccc2)CC1 (stereo not shown) [Example 400-32]	116	< 1
CC1(S(=O)(=O)NC(=O)c2cc3sc(N4C5CCC4CC(NCc4c(-c6c(Cl)cccc6Cl)noc4C4CC4)C5)nc3c3ccccc23)CC1 (stereo not shown) [Example 400-33]	91	< 1
CC1(S(=O)(=O)NC(=O)c2cc(C3CC3)c3nc(N4C5CCC4CC(NCc4c(-c6c(Cl)cccc6Cl)noc4C4CC4)C5)sc3c2)CC1 (stereo not shown) [Example 400-35]	117	1 to 100
O=C(NS(=O)(=O)C1CC1)c1ccc(N2C3CCC2CC(NCc2c(-c4c(Cl)cccc4Cl)noc2C2CC2)C3)nc1 (stereo not shown) [Example 400-37]	82.5	1 to 100
O=C(O)c1ccc2nc(N3C4CCC3CC(NCc3c(-c5ccccc5OC(F)(F)F)noc3C3CC3)C4)sc2c1 (stereo not shown) [Example 402]	112	1 to 100
